Columns and labels:
[1] = tested on: dorsal root ganglion explants; assay: Axonal Wallerian degeneration assay in mouse DRG explant culture; assay type: cell-based, C57BL/6 male mice; settings: 10 µM test compound, 2 hours pretreatment, axons transected, images at 0 hour and 24 hours
How it was run: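 Explants from 2-month-old male C57BL/6 mouse DRG were cultured 8 days in Neurobasal/B-27 with 10 ng/mL NGF. They were pretreated 2 h with 10 µM compound at 37°C, then axons were transected with a glass electrode. Axonal integrity was scored by script from bright-field images at 0 and 24 h.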

SARM1 = target: T1, SARM1 (Homo sapiens, UniProt Q6SZW1); assay: In vitro biochemical assay for inhibiting SARM1 enzyme activity (PC6 fluorescence, NADase); settings: full-length SARM1 from transfected HEK293 cells; 50 µM NAD, 50 µM PC6, 50 µM NMN activator; room temperature, 30 minutes; read-out: IC50
T1 construct: inventors produced full-length SARM1 for NAD enzyme activity experiments, and used it for screening; His (C); made in house; host or cells: HEK293 cells, transient transfection; supernatant of digitonin lysate, no further purification described
T1 sequence (Q6SZW1 28-724): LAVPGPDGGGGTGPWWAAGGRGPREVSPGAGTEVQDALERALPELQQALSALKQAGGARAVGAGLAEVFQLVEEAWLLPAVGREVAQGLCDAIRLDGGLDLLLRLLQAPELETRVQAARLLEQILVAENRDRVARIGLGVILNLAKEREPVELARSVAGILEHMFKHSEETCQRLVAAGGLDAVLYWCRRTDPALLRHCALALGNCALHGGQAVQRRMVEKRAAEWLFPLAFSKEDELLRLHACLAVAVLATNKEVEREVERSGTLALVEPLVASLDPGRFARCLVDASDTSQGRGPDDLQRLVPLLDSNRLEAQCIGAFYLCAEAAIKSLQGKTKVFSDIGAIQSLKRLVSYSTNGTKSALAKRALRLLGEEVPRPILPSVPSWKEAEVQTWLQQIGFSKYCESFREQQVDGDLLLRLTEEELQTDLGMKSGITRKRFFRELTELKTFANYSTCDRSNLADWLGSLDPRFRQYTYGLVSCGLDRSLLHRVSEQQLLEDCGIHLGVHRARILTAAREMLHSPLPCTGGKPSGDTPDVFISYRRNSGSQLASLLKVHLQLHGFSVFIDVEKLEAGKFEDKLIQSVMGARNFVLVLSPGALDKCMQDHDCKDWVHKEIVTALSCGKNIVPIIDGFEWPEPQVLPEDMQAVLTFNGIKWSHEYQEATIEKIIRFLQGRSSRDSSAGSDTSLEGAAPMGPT
How it was run: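 Lysate supernatant from HEK293 cells transfected 48 hours with His-tagged SARM1 was obtained by 100 μM digitonin lysis and preincubated with inhibitor 10 minutes at room temperature.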

| IC50 (SARM1) [µM] | SMILES | Degree of Protection Against Axonal Wallerian Degeneration [1] |
| --- | --- | --- |
| < 0.1 | O=C(CCc1ccccc1F)Nc1ccc2c(c1)COc1cnccc1-2 [Compound 136] | A (substantial protection (A) >50%) |
| 0.1 to 1 | O=C1C(Cc2ccc(F)cc2)CCCN1c1ccc2c(c1)COc1cnccc1-2 (centres unmarked) [Compound 137] | A (substantial protection (A) >50%) |
| < 0.1 | O=C(CCc1cccs1)Nc1ccc2c(c1)COc1cnccc1-2 [Compound 138] | A (substantial protection (A) >50%) |
| < 0.1 | [2H]C1(Cc2ccc(F)cc2)CCN(c2ccc3c(c2)COc2cnccc2-3)C1=O (centres unmarked) [Compound 139, 3-(4-fluorobenzyl)-1-(6H-isochromeno[3,4-c]pyridin-8-yl)pyrrolidin-2-one-3d] | A (substantial protection (A) >50%) |
| 0.1 to 1 | O=C(CCc1ccc(F)cc1)Nc1ccc2c(c1)COc1cncc(Cl)c1-2 [Compound 140] | B (partial protection (B): 20% to 50%) |
| 0.1 to 1 | O=C1C(Cc2ccc(F)cc2)CN1c1ccc2c(c1)COc1cnccc1-2 (centres unmarked) [Compound 142, 3-(4-fluorobenzyl)-1-(6H-isochromeno[3,4-c]pyridin-8-yl)azetidin-2-one] | A (substantial protection (A) >50%) |
| < 0.1 | [2H]C1(Cc2ccc(F)cc2)CCN(c2ccc3c(c2)C([2H])([2H])Oc2cnccc2-3)C1=O (centres unmarked) [Compound 143, 3-(4-fluorobenzyl)-1-(6H-isochromeno[3,4-c]pyridin-8-yl-6,6-d2)pyrrolidin-2-one-3d] | A (substantial protection (A) >50%) |
| < 0.1 | [2H]C1Oc2cnccc2-c2ccc(N3CCC(Cc4ccc(F)cc4)C3=O)cc21 (centres unmarked) [Compound 145, 3-(4-fluorobenzyl)-1-(6H-isochromeno[3,4-c]pyridin-8-yl-6-d)pyrrolidin-2-one] | A (substantial protection (A) >50%) |
| < 0.1 | [2H]C1([2H])Oc2cnccc2-c2ccc(N3CCC(Cc4ccc(F)cc4)C3=O)cc21 (centres unmarked) [Compound 146, 3-(4-fluorobenzyl)-1-(6H-isochromeno[3,4-c]pyridin-8-yl-6,6-d2)pyrrolidin-2-one] | A (substantial protection (A) >50%) |
| < 0.1 | CC1Oc2cnccc2-c2ccc(N3CCC(Cc4ccc(F)cc4)C3=O)cc21 (centres unmarked) [Compound 147, 3-(4-fluorobenzyl)-1-(6-methyl-6H-isochromeno[3,4-c]pyridin-8-yl)pyrrolidin-2-one] | A (substantial protection (A) >50%) |
